In US20260226084A1, “DUAL RAF AND TUBULIN INHIBITORS AND METHODS OF USE THEREOF” (Deciphera Pharmaceuticals, LLC, priority 2023, published 2026):

How the values were obtained:
Pa16c cells = assay: Pa16c Cell Proliferation Assay; format: cell-based; conditions: Table 2, read-out: Inhibition of cell proliferation in Pa16c (IC50 class)
Method in brief: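 Proliferation read-out: resazurin fluorescence (540 nm excitation, 600 nm emission) after an extra 18 to 24 h. Before that, compound dilution series (triplicate) stayed on 750 Pa16c cells/well in complete DMEM/10% FBS for 67 to 72 h at 37° C. IC50 values derived from the curves.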

HCT-116 cells = assay: HCT-116 Cell Proliferation Assay; format: cell-based; conditions: Homo sapiens, HCT-116, HCT-116 cells; Table 2; read-out: Inhibition of cell proliferation in HCT-116 (IC50 class)
Method in brief: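 IC50 values come from resazurin fluorescence (540 nm excitation, 600 nm emission) added for 4 to 5 h after compound treatment. Treatment: serially diluted compound in triplicate on 375 HCT-116 cells per well in complete McCoy's 5A/10% FBS, 67 to 72 hours, 37 °C, 5% CO2.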

MiaPaca-2 cells = assay: MiaPaca-2 Cell Proliferation Assay; format: cell-based; conditions: Homo sapiens, MIA PaCa-2, MiaPaca-2 cells; Table 2; read-out: Inhibition of cell proliferation in MiaPaca-2 (IC50 class)
Method in brief: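 Viability was read as resazurin fluorescence (540 nm excitation, 600 nm emission) after 5–6 h with dye. Compounds were tested as serial dilutions in triplicate, with IC50 derived from the dose–response.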

[1] = target: T1, C-Raf kinase (SEQ ID NO: 2) (Homo sapiens, UniProt P04049, Y340D/Y341D); assay: Biochemical Assay for C-Raf (coupled pyruvate kinase/lactate dehydrogenase assay); conditions: 1 mM ATP; read-out: CRAF (inhibition of biochemical activity, IC50)
T1 construct: C-Raf residues 306-end; Y340D, Y341D with; GST (N); purchased Sigma
T1 sequence (P04049 307-648 Y340D/Y341D): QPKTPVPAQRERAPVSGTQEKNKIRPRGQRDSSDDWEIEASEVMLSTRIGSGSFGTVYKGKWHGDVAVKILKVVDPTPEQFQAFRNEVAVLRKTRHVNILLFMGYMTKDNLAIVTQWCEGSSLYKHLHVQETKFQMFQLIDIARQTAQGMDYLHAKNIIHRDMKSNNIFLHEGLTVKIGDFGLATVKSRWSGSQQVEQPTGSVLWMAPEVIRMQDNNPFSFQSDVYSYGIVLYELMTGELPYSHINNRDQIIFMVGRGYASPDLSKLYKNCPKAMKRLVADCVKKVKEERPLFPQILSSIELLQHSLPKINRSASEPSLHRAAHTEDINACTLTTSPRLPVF

[2] = target: T2, B-Raf kinase (SEQ ID NO: 1) (Homo sapiens, UniProt P15056); assay: Biochemical Assay for B-Raf (coupled pyruvate kinase/lactate dehydrogenase assay); conditions: 1 mM ATP; read-out: BRAF (inhibition of biochemical activity, IC50)
T2 construct: GST (N); purchased Sigma
T2 sequence (P15056 416-766): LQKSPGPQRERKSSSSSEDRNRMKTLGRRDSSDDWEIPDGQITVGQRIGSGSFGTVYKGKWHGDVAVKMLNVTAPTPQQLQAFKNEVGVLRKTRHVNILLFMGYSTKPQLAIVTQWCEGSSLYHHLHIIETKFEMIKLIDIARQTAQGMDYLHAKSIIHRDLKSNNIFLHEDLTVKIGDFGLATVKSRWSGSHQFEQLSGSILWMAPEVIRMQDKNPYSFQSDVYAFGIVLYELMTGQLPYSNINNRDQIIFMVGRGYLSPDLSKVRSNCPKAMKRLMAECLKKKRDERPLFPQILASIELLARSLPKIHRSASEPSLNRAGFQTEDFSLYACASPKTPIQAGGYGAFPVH

HPAF-II cells = assay: HPAF-II Cell Proliferation Assay; format: cell-based; conditions: Homo sapiens, HPAF-II, HPAF-II cells; Table 2; read-out: Inhibition of cell proliferation in HPAF-II (IC50 class)
Method in brief: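 Viability read-out was resazurin fluorescence (540 nm excitation, 600 nm emission), developed 18–24 h after a 115–120 h compound exposure of 750 HPAF-II cells per well in MEM/10% FBS at 37 °C. Compound was tested as a serial dilution in triplicate, and IC50 values were calculated.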

| IC50 (HCT-116 cells) | IC50 (MiaPaca-2 cells) | IC50 [1] | IC50 [2] | Structure (SMILES) | IC50 (Pa16c cells) | IC50 (HPAF-II cells) |
| --- | --- | --- | --- | --- | --- | --- |
| 1000 to 10000 nM | 1000 to 10000 nM | < 100 nM | < 100 nM | Cc1ccc(NC(=O)c2cncc(C(F)(F)F)n2)cc1-c1cncc(-c2ccnc(NC(=O)C3CC3)c2)c1 [Example 5] | 1000 to 10000 nM | 1000 to 10000 nM |
| 500 to 1000 nM | 500 to 1000 nM | 100 to 500 nM | 100 to 500 nM | Cc1ccc(NC(=O)c2cc(C3CC3)cnn2)cc1-c1ccnc(-c2cnn(C)n2)c1 [Example 141] | 500 to 1000 nM | 500 to 1000 nM |
| 1000 to 10000 nM | 1000 to 10000 nM | < 100 nM | 100 to 500 nM | Cc1ccc(NC(=N)c2cc(C(F)(F)F)cnn2)cc1-c1ccnc(-c2ccnc(NC(=O)C3CC3)c2)c1 [Example 86] | 1000 to 10000 nM | 1000 to 10000 nM |
| 100 to 500 nM | 100 to 500 nM | 100 to 500 nM | 100 to 500 nM | CONc1cc(-c2cc(-c3cc(NC(=O)c4cc(C(F)(F)F)cnn4)ccc3C)ccn2)ccn1 [Example 128, N-(3-(2′-(methoxyamino)-[2,4′-bipyridin]-4-yl)-4-methylphenyl)-5-(trifluoromethyl)pyridazine-3-carboxamide] | 500 to 1000 nM | 100 to 500 nM |
| 100 to 500 nM | < 100 nM | < 100 nM | < 100 nM | CC(=O)Nc1cc(-c2cc(-c3cc(NC(=O)c4ccc(C(F)F)nc4)c(F)cc3C)ccn2)ccn1 [Example 20] | 100 to 500 nM | < 100 nM |
| 1000 to 10000 nM | 1000 to 10000 nM | 100 to 500 nM | 500 to 1000 nM | Cc1ccc(NC(=O)c2cc(N)cnn2)cc1-c1ccnc(-c2ccnc(NC(=O)C3CC3)c2)c1 [Example 99] | 1000 to 10000 nM | 1000 to 10000 nM |
| 1000 to 10000 nM | 1000 to 10000 nM | < 100 nM | < 100 nM | Cc1ccc(NC(=O)c2ccc(C(F)(F)F)nc2)cc1-c1cncc(-c2cc(NC(=O)C3CC3)ncn2)c1 [Example 75] | 1000 to 10000 nM | 1000 to 10000 nM |
| 500 to 1000 nM | 500 to 1000 nM | < 100 nM | 100 to 500 nM | Cc1ccc(NC(=O)c2cnc(C(F)(F)F)cn2)cc1-c1ccnc(-c2ccnc(NC(=O)C3CC3)c2)c1 [Example 56] | 1000 to 10000 nM | 1000 to 10000 nM |
| 1000 to 10000 nM | 1000 to 10000 nM | < 100 nM | < 100 nM | O=C(Nc1cc(-c2ccnc(-c3ccnc(NC(=O)C4CC4)c3)c2)c(F)cc1F)c1cc(C(F)(F)F)cnn1 [Example 46] | 1000 to 10000 nM | 1000 to 10000 nM |
| 100 to 500 nM | 100 to 500 nM | < 100 nM | < 100 nM | Cc1ccc(NC(=O)c2cc(C(F)(F)F)cnn2)cc1-c1ccnc(-c2ccnc(NC(=O)CN(C)C)c2)c1 [Example 52] | 500 to 1000 nM | 100 to 500 nM |
| < 100 nM | < 100 nM | < 100 nM | < 100 nM | Cc1ccc(NC(=O)c2cc(C(C)(F)F)cnn2)cc1-c1cc(N[C@H](C)CO)nc(-c2cn[nH]c2)c1 [Example 121] | < 100 nM | 100 to 500 nM |
| < 100 nM | < 100 nM | < 100 nM | < 100 nM | CC(=O)Nc1cc(-c2cc(-c3cc(NC(=O)c4ccc(C(F)F)nc4)ccc3C)ccn2)ccn1 [Example 1, N-(3-(2′-acetamido-[2,4′-bipyridin]-4-yl)-4-methylphenyl)-6-(difluoromethyl)nicotinamide] | < 100 nM | < 100 nM |
| 1000 to 10000 nM | 1000 to 10000 nM | < 100 nM | < 100 nM | Cc1ccc(NC(=O)c2ccc(C(F)(F)F)nn2)cc1-c1cncc(-c2cc(NC(=O)C3CC3)ncn2)c1 [Example 23] | 1000 to 10000 nM | 1000 to 10000 nM |
